Measured values taken from ChEMBL document CHEMBL5729147, “Inhibitors of plasma kallikrein and uses thereof” (2022).

Biological target: Plasma kallikrein (Homo sapiens, UniProt P03952)
Experiment: Inhibitory Activity Assay: Example compounds were evaluated for inhibition of the human activated kallikrein enzyme in two formats of an assay employing a fluorogenic peptide substrate. In one assay format, the concentrations of reagents were as follows: 20 mM Tris pH 7.5, 1 mM EDTA, 150 mM sodium chloride, 0.1% PEG-400, 0.1% Triton X-100, 500 pM activated kallikrein enzyme, 300 uM Pro-Phe-Arg-7-amido-4-methylcoumarin substrate. Prior to reaction initiation with substrate, enzyme and inhibitors were preincubated for 30 min at RT. After initiation with substrate, reactions were incubated for 10 min at RT and fluorescence emission at 460 nm from 380 nm excitation measured with a microplate reader. In another assay format, the concentrations of reagents were as follows: 20 mM Tris pH 7.5, 1 mM EDTA, 150 mM sodium chloride, 0.1% PEG-400, 0.1% Triton X-100, 5 pM activated kallikrein enzyme, 300 uM Pro-Phe-Arg-7-amido-4-methylcoumarin substrate. Prior to reaction initiation with substrate, enzyme and inhibitors were preincubated for 30 min at RT. After initiation with substrate, reactions were incubated for 18 h at RT and fluorescence emission at 460 nm from 380 nm excitation measured with a microplate reader.

Plasma kallikrein, sequence (P03952 20-390 limits assumed): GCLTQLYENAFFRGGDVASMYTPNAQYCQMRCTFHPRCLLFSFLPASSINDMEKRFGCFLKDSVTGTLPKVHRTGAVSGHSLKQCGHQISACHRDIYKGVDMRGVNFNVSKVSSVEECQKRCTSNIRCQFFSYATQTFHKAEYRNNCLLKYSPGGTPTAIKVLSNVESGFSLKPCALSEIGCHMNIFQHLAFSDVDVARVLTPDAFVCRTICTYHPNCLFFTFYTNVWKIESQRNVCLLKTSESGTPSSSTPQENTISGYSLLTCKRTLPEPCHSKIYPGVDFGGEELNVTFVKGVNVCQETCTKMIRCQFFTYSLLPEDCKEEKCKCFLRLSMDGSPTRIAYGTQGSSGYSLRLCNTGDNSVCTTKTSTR
Plasma kallikrein, sequence (P03952 391-638 limits assumed): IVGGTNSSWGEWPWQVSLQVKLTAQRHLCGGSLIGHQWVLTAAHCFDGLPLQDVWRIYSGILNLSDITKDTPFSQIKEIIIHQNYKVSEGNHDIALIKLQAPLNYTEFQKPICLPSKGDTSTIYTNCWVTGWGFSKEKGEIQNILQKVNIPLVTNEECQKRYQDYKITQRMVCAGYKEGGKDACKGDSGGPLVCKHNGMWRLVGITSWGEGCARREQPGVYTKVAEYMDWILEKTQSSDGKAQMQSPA

For `O=C(NCc1ncn2ccc(Cl)cc12)c1cnn(Cc2cc3cc(C4CC4)ccn3n2)c1`, the EC50 was < 1 nM.
